Results reported in US8609653B2, “Azaindole compounds and methods for treating HIV” (priority 2011, dated 2013).
pIC50: −log10 of the molar value. Counter-ions that a name gives are not always drawn.

Each compound was assayed on HIV (assay: MT4 assay: antiviral HIV activity in MT-4 cells). Conditions: HTLV-1 transformed cell line MT-4; read-out 96 hours later with cell titer glo; 10 point dose response; trifluoroacetic acid salt; read-out: HIV MT4 Assay IC50.
Format: cell-based
Procedure: Antiviral HIV activity and cytotoxicity values for compounds of the invention from Table 1 were measured in parallel in the HTLV-1 transformed cell line MT-4 based on the method previously described (Hazen et al., 2007, In vitro antiviral activity of the novel, tyrosyl-based human immunodeficiency virus (HIV) type 1 protease inhibitor brecanavir (GW640385) in combination with other antiretrovirals and against a panel of protease inhibitor-resistant HIV (Hazen et al., “In vitro antiviral activity of the novel, tyrosyl-based human immunodeficiency virus (HIV) type 1 protease inhibitor brecanavir (GW640385) in combination with other antiretrovirals and against a panel of protease inhibitor-resistant HIV”, Antimicrob. Agents Chemother. 2007, 51: 3147-3154; and Pauwels et al., “Sensitive and rapid assay on MT-4 cells for the detection of antiviral compounds against the AIDS virus”, J. of Virological Methods 1987, 16: 171-185).
Luciferase activity was measured 96 hours later by adding a cell titer glo (Promega, Madison, Wis.). Percent inhibition of cell protection data was plotted relative to no compound control. Under the same condition, cytotoxicity of the compounds was determined using cell titer Glo™ (Promega, Madison, Wis.). IC50s were determined from a 10 point dose response curve using 3-4-fold serial dilution for each compound, which spans a concentration range>1000 fold.
These values are plotted against the molar compound concentrations using the standard four parameter logistic equation: y=((Vmax*x^n)/(K^n+x^n))+Y2
Y2=minimum y n=slope factor
Vmax=maximum y x=compound concentration [M]

| Structure (SMILES) | pIC50 |
| --- | --- |
| Cc1nc2c(ccn2Cc2ccc(F)c(F)c2)c(-c2ccc3c(c2C)NCCO3)c1[C@H](OC(C)(C)C)C(=O)O (atropisomer, axis not shown; (P)) [Example 100, (2S)(P)-2-(tert-butoxy)-2-(1-(3,4-difluorobenzyl)-6-methyl-4-(5-methyl-3,4-dihydro-2H-benzo[b][1,4]oxazin-6-yl)-1H-pyrrolo[2,3-b]pyridin-5-yl)acetic acid, trifluoroacetic acid salt] | 7.00 |

Same assay, conditions: Human immunodeficiency virus 1, MT4, 96 h, read-out: HIV MT4 Assay IC50 (μM), HTLV-1 transformed cell line MT-4; read-out 96 hours later with cell titer glo; 10 point dose response

| Structure (SMILES) | IC50 [µM] |
| --- | --- |
| Cc1nc2c(ccn2C)c(-c2cc(F)c3c(c2C)CCCO3)c1[C@H](OC(C)(C)C)C(=O)O (atropisomer, axis not shown; (M)) [Example 131, (2S)(M)-2-(tert-butoxy)-2-(4-(8-fluoro-5-methylchroman-6-yl)-1,6-dimethyl-1H-pyrrolo[2,3-b]pyridin-5-yl)acetic acid, Trifluoroacetic acid salt] | 0.055 |
| Cc1nc2c(ccn2Cc2cccc(F)c2F)c(-c2cc(F)c3c(c2C)NCCO3)c1[C@H](OC(C)(C)C)C(=O)O (atropisomer, axis not shown; (M)) [Example 132] | 0.021 |
| Cc1ccc(-c2c(C(OC(C)(C)C)C(=O)O)c(C)nc3c2ccn3Cc2ccc(F)cc2)cc1 (stereo not drawn) [Example 1, 2-(tert-butoxy)-2-(1-(4-fluorobenzyl)-6-methyl-4-(p-tolyl)-1H-pyrrolo[2,3-b]pyridin-5-yl)acetic acid] | 0.18 |
| Cc1ccc(-c2c([C@H](OC(C)(C)C)C(=O)O)c(C)nc3c2ccn3Cc2ccc(F)cc2)cc1 [Example 2, (S)-2-(tert-butoxy)-2-(1-(4-fluorobenzyl)-6-methyl-4-(p-tolyl)-1H-pyrrolo[2,3-b]pyridin-5-yl)acetic acid] | 0.08 |
| Cc1nc2c(ccn2Cc2ccc(F)c(F)c2)c(-c2ccc(Cl)cc2)c1[C@H](OC(C)(C)C)C(=O)O [Example 3, (S)-2-(tert-butoxy)-2-(4-(4-chlorophenyl)-1-(3,4-difluorobenzyl)-6-methyl-1H-pyrrolo[2,3-b]pyridin-5-yl)acetic acid] | 0.09 |
| Cc1ccc(-c2c(C(OC(C)(C)C)C(=O)O)c(C)nc3c2ccn3Cc2ccccn2)cc1 (stereo not drawn) [Example 4, 2-(tert-Butoxy)-2-(6-methyl-1-(pyridin-2-ylmethyl)-4-(p-tolyl)-1H-pyrrolo[2,3-b]pyridin-5-yl)acetic acid, Trifluoroacetic acid salt] | 1.05 |
| Cc1ccc(-c2c(C(OC(C)(C)C)C(=O)O)c(C)nc3c2ccn3Cc2ccc(F)c(F)c2)cc1 (stereo not drawn) [Example 5, 2-(tert-butoxy)-2-(1-(3,4-difluorobenzyl)-6-methyl-4-(p-tolyl)-1H-pyrrolo[2,3-b]pyridin-5-yl)acetic acid] | 0.2 |
| Cc1ccc(-c2c(C(OC(C)(C)C)C(=O)O)c(C)nc3c2ccn3Cc2cc(F)ccc2F)cc1 (stereo not drawn) [Example 6, 2-(tert-butoxy)-2-(1-(2,5-difluorobenzyl)-6-methyl-4-(p-tolyl)-1H-pyrrolo[2,3-b]pyridin-5-yl)acetic acid] | 0.182 |
| Cc1ccc(-c2c([C@H](OC(C)(C)C)C(=O)O)c(C)nc3c2ccn3Cc2cc(F)ccc2F)cc1 [Example 7, (S)-2-(tert-butoxy)-2-(1-(2,5-difluorobenzyl)-6-methyl-4-(p-tolyl)-1H-pyrrolo[2,3-b]pyridin-5-yl)acetic acid] | 0.106 |
| Cc1ccc(-c2c(C(OC(C)(C)C)C(=O)O)c(C)nc3c2ccn3Cc2cc(F)c(F)c(F)c2)cc1 (stereo not drawn) [Example 8, 2-(tert-butoxy)-2-(6-methyl-4-(p-tolyl)-1-(3,4,5-trifluorobenzyl)-1H-pyrrolo[2,3-b]pyridin-5-yl)acetic acid] | 0.16 |
| Cc1ccc(-c2c([C@H](OC(C)(C)C)C(=O)O)c(C)nc3c2ccn3Cc2cc(F)c(F)c(F)c2)cc1 [Example 9, (S)-2-(tert-butoxy)-2-(6-methyl-4-(p-tolyl)-1-(3,4,5-trifluorobenzyl)-1H-pyrrolo[2,3-b]pyridin-5-yl)acetic acid] | 0.04 |
| Cc1ccc(-c2c([C@@H](OC(C)(C)C)C(=O)O)c(C)nc3c2ccn3Cc2cc(F)c(F)c(F)c2)cc1 [Example 10, (R)-2-(tert-butoxy)-2-(6-methyl-4-(p-tolyl)-1-(3,4,5-trifluorobenzyl)-1H-pyrrolo[2,3-b]pyridin-5-yl)acetic acid] | 10 |
| Cc1nc2c(ccn2Cc2ccc(F)c(F)c2)c(-c2ccc3c(c2)CCCO3)c1C(OC(C)(C)C)C(=O)O (stereo not drawn) [Example 11, 2-(tert-butoxy)-2-(4-(chroman-6-yl)-1-(3,4-difluorobenzyl)-6-methyl-1H-pyrrolo[2,3-b]pyridin-5-yl)acetic acid] | 0.09 |
| Cc1ccc(-c2c(C(OC(C)(C)C)C(=O)O)c(C)nc3c2ccn3Cc2ccc(C)c(F)c2)cc1 (stereo not drawn) [Example 12, 2-(tert-butoxy)-2-(1-(3-fluoro-4-methylbenzyl)-6-methyl-4-(p-tolyl)-1H-pyrrolo[2,3-b]pyridin-5-yl)acetic acid] | 2.1 |
| Cc1ccc(-c2c(C(OC(C)(C)C)C(=O)O)c(C)nc3c2ccn3Cc2ccc(F)cc2Cl)cc1 (stereo not drawn) [Example 13, 2-(tert-butoxy)-2-(1-(2-chloro-4-fluorobenzyl)-6-methyl-4-(p-tolyl)-1H-pyrrolo[2,3-b]pyridin-5-yl)acetic acid] | 0.43 |
| Cc1ccc(-c2c([C@@H](OC(C)(C)C)C(=O)O)c(C)nc3c2ccn3[C@H](C)c2ccc(F)cc2)cc1 [Example 14, (R)-2-(tert-butoxy)-2-(1-((R)-1-(4-fluorophenyl)ethyl)-6-methyl-4-(p-tolyl)-1H-pyrrolo[2,3-b]pyridin-5-yl)acetic acid] | 0.71 |
| Cc1ccc(-c2c([C@H](OC(C)(C)C)C(=O)O)c(C)nc3c2ccn3[C@H](C)c2ccc(F)cc2)cc1 [Example 15, (S)-2-(tert-butoxy)-2-(1-((R)-1-(4-fluorophenyl)ethyl)-6-methyl-4-(p-tolyl)-1H-pyrrolo[2,3-b]pyridin-5-yl)acetic acid] | 0.1 |
| Cc1ccc(-c2c(C(OC(C)(C)C)C(=O)O)c(C)nc3c2ccn3Cc2ccc(Cl)c(F)c2)cc1 (stereo not drawn) [Example 16, 2-(tert-butoxy)-2-(1-(4-chloro-3-fluorobenzyl)-6-methyl-4-(p-tolyl)-1H-pyrrolo[2,3-b]pyridin-5-yl)acetic acid] | 0.36 |
| Cc1ccc(-c2c([C@@H](OC(C)(C)C)C(=O)O)c(C)nc3c2ccn3Cc2ccc(F)c(F)c2)cc1 [Example 17, (R)-2-(tert-butoxy)-2-(1-(3,4-difluorobenzyl)-6-methyl-4-(p-tolyl)-1H-pyrrolo[2,3-b]pyridin-5-yl)acetic acid] | 10 |
| Cc1ccc(-c2c([C@H](OC(C)(C)C)C(=O)O)c(C)nc3c2ccn3Cc2ccc(F)c(F)c2)cc1 [Example 18, (S)-2-(tert-butoxy)-2-(1-(3,4-difluorobenzyl)-6-methyl-4-(p-tolyl)-1H-pyrrolo[2,3-b]pyridin-5-yl)acetic acid] | 0.1 |
| Cc1ccc(-c2c(C(OC(C)(C)C)C(=O)O)c(C)nc3c2ccn3Cc2ccccc2)cc1 (stereo not drawn) [Example 19, 2-(1-benzyl-6-methyl-4-(p-tolyl)-1H-pyrrolo[2,3-b]pyridin-5-yl)-2-(tert-butoxy)acetic acid] | 0.17 |
| Cc1ccc(-c2c(C(OC(C)(C)C)C(=O)O)c(C)nc3c2ccn3Cc2cc(Cl)ccc2F)cc1 (stereo not drawn) [Example 20, 2-(tert-butoxy)-2-(1-(5-chloro-2-fluorobenzyl)-6-methyl-4-(p-tolyl)-1H-pyrrolo[2,3-b]pyridin-5-yl)acetic acid] | 0.23 |
| Cc1ccc(-c2c(C(OC(C)(C)C)C(=O)O)c(C)nc3c2ccn3Cc2cccc(F)c2F)cc1 (stereo not drawn) [Example 21, 2-(tert-butoxy)-2-(1-(2,3-difluorobenzyl)-6-methyl-4-(p-tolyl)-1H-pyrrolo[2,3-b]pyridin-5-yl)acetic acid] | 0.1 |
| Cc1ccc(-c2c(C(OC(C)(C)C)C(=O)O)c(C)nc3c2ccn3Cc2cccc(Cl)c2F)cc1 (stereo not drawn) [Example 22, 2-(tert-butoxy)-2-(1-(3-chloro-2-fluorobenzyl)-6-methyl-4-(p-tolyl)-1H-pyrrolo[2,3-b]pyridin-5-yl)acetic acid] | 0.86 |

Same assay, conditions: read-out: HIV MT4 Assay IC50; HTLV-1 transformed cell line MT-4; read-out 96 hours later with cell titer glo; 10 point dose response; Trifluoroacetic acid salt

| Structure (SMILES) | pIC50 |
| --- | --- |
| Cc1nc2c(c3c(n2C)CCCC3)c(-c2ccc3c(c2C)NCCO3)c1[C@H](OC(C)(C)C)C(=O)O (atropisomer, axis not shown; (M)) [Example 130, (2S)(M)-2-(tert-butoxy)-2-(2,9-dimethyl-4-(5-methyl-3,4-dihydro-2H-benzo[b][1,4]oxazin-6-yl)-6,7,8,9-tetrahydro-5H-pyrido[2,3-b]indol-3-yl)acetic acid, Trifluoroacetic acid salt] | 8.00 |
| Cc1nc2c(c3c(n2C)CCCC3)c(-c2ccc3c(c2C)NCCO3)c1[C@H](OC(C)(C)C)C(=O)O (atropisomer, axis not shown; (P)) [Example 129, (2S)(P)-2-(tert-butoxy)-2-(2,9-dimethyl-4-(5-methyl-3,4-dihydro-2H-benzo[b][1,4]oxazin-6-yl)-6,7,8,9-tetrahydro-5H-pyrido[2,3-b]indol-3-yl)acetic acid, Trifluoroacetic acid salt] | 6.00 |
